The test system of this test is coronary arteries of juvenile domestic swine. Kind of test: Stent implantation in porcine coronary artery model, morphometric analysis after 28 days. As to conditions: BHT in copolymer stent coating. Type of test: in vivo. From the text: The following are placed in the coronary arteries of juvenile domestic swine: (a) oversized bare metal stents, (b) EtO-sterilized, copolymer-coated, BHT-free stents, (c) electron-beam-sterilized, copolymer-coated, BHT-free stents, (d) electron-beam-sterilized, stents with coating containing 5% BHT and 95% copolymer, and (e) electron beam-sterilized, stents with coating containing 10% BHT and 90% copolymer. After 28 days, the stents are harvested from the animals and an examination of morphometric % restenosis and neointimal thickening area was conducted. Morphometric analysis is performed on one specimen from each stented segment in a blinded manner. Morphometry is completed using a PC based digital planimetry system. Morphometric % restenosis is determined by neointimal area÷internal elastic lamina (IEL) area×100; while neointimal area is determined by internal elastic lamina (IEL)−injured luminal area. The results are presented in the table to follow: Statistical methods are as follows: Data are presented as mean±S.D. Comparisons between the control (bare stent) and treated stents were made using unpaired t-test. Improvement in morphometic % restenosis and neointimal area, relative to bare stents, was […] considered to be statistically significant for values of p≦0.05.

Regarding `Cc1cc(C(C)(C)C)c(O)c(C(C)(C)C)c1` [BHT, butylated hydroxytoluene], the stent biocompatibility result is “enhances stent biocompatibility”.

(Values after patent US20050064011A1, “Implantable or insertable medical devices containing phenolic compound for inhibition of restenosis” (priority 2003, published 2005).)
